Test results published in paper PMC12079163 (Drug Development Research, 2025).

Tests used:
[1] = Solubility under the assay conditions; assay type: physicochemical; conditions: HDAC, BCL‐2 and cell assays; data not reliable, not reported
[2] = target: T1, HDAC6 (Homo sapiens, UniProt Q9UBN7); conditions: ref Zhou et al. [2019]; cited from earlier work
T1 sequence (Q9UBN7 1-1215): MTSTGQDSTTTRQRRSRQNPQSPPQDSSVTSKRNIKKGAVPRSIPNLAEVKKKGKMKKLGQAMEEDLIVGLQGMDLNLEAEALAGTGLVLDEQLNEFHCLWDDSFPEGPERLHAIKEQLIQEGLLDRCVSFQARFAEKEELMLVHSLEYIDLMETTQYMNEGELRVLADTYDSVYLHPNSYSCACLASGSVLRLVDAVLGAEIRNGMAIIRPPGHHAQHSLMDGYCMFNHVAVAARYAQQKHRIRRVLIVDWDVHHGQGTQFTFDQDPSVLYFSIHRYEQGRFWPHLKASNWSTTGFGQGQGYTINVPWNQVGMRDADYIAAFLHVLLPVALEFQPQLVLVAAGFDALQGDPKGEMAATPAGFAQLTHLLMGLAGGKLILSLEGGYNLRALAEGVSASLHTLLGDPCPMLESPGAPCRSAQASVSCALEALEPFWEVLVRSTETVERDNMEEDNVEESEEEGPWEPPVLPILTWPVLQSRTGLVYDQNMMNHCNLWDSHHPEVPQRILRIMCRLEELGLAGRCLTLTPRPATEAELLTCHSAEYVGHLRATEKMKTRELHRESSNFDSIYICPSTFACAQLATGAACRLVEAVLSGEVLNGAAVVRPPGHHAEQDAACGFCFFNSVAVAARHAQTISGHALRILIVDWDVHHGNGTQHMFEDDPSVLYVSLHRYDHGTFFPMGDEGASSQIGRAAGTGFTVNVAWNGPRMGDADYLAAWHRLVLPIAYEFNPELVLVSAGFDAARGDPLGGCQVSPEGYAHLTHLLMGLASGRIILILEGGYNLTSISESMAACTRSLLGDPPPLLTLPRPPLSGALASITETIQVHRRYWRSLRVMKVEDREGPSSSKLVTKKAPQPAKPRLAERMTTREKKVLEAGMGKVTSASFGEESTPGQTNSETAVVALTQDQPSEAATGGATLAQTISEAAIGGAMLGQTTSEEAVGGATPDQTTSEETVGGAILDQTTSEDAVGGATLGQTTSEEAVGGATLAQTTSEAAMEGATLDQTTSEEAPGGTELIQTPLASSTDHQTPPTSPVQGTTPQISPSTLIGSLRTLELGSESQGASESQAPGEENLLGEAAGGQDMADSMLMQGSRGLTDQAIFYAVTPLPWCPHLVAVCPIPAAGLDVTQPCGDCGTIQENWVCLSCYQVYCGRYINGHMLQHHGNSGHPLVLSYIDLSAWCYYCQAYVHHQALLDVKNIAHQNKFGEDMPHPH

Row | solubility under the assay conditions [1] | SMILES | selectivity for HDAC6 over HDAC1 [2]
1 | Limited solubility | CC1(C)CCC(CN2CCN(c3ccc(C(=O)NS(=O)(=O)c4ccc(NCC5CCN(c6c(F)cc(C(=O)NO)cc6F)CC5)c([N+](=O)[O-])c4)c(Oc4cnc5[nH]ccc5c4)c3)CC2)=C(c2ccc(Cl)cc2)C1 [AMC‐4‐101, 4‐(4‐(((4‐(N‐(2‐((1H‐pyrrolo[2,3‐b]pyridin‐5‐yl)oxy)‐4‐(4‐((4′‐chloro‐5,5‐dimethyl‐3,4,5,6‐tetrahydro‐[1,1′‐biphenyl]‐2‐yl)methyl)piperazin‐1‐yl)benzoyl)sulfamoyl)‐2‐nitrophenyl)amino)methyl)piperidin‐1‐yl)‐3,5‐difluoro‐N‐hydroxybenzamide] | –
2 | – | O=C(CCCCCCC(=O)Nc1ccccc1)NO [SAHA] | about threefold
